Results from patent publication US11040031B2, “Pyrazole derivatives as MALT1 inhibitors” (Janssen Pharmaceutica NV, priority 2018, dated 2021).
Where two headings read alike, the source gives them in different places.

Key:
[1] = system: Secretion of IL10 by OCI-LY3 ABC-DLBCL cells; assay: Human IL10 Mesoscale assay (OCI-LY3); format: cell-based; settings: read-out: Human IL10 Mesoscale assay (OCI-LY3)
Protocol: (§1) NFKB signaling regulates the secretion of multiple cytokines, including IL6 and IL10. Secretion of the cytokines IL6 and IL10 by TMD8 or OCI-LY3 ABC-DLBCL cells was measured using a mesoscale assay.
(§2) Cell passage number should not exceed 30. Cells should be kept between 0.5-2.5 million cells per mL during culturing and cells should be supplemented every 2-3 days with fresh 50 µM beta-mercaptoenthanol. No beta-mercaptoethanol was used during the mesoscale assay.
(§3) DMSO control wells were used to determine the maximum signal (High Control (HC)). […] Compounds and cells were incubated for 24 h at 37° C. and 5% CO2 (assay volume is 150 μL). After 24 h of incubation 50 μL of the supernatant was transferred to a MSD plate (V-Plex Proinflammation Panel 1 (human) kit, Mesoscale (MSD)) and incubated for 2 h with vigorous shaking (600 rpm) at room temperature. Following incubation, plates were washed 3× with PBS+0.05% Tween-20 and 25 μL detection antibody solution (IL6 & IL10 antibodies in diluent 3 (MSD)) was added per well followed by 2 h of incubation with vigorous shaking (600 rpm) at room temperature. After 3× washes with PBS+0.05% Tween-20, plates were incubated with 150 μL 2× Read Buffer T and read on SECTOR imager.

[2] = system: Secretion of IL6 by OCI-LY3 ABC-DLBCL cells; assay: Human IL6 Mesoscale assay (OCI-LY3); format: cell-based; settings: read-out: Human IL6 Mesoscale assay (OCI-LY3)
Protocol: as §1, §2, §3

[3] = biological target: T1, full-length MALT1 protein (Strep-MALT1(1-824)-His) (Homo sapiens, UniProt Q9UDY8); assay: biochemical;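 also: fluorogenic LRSR-AMC substrate cleavage by MALT1, 50 min compound preincubation then 4 h reaction at RT, 11-point dilution from 30 µM, scaled between enzyme-free and untreated enzyme controls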
T1 sequence (Q9UDY8 1-824): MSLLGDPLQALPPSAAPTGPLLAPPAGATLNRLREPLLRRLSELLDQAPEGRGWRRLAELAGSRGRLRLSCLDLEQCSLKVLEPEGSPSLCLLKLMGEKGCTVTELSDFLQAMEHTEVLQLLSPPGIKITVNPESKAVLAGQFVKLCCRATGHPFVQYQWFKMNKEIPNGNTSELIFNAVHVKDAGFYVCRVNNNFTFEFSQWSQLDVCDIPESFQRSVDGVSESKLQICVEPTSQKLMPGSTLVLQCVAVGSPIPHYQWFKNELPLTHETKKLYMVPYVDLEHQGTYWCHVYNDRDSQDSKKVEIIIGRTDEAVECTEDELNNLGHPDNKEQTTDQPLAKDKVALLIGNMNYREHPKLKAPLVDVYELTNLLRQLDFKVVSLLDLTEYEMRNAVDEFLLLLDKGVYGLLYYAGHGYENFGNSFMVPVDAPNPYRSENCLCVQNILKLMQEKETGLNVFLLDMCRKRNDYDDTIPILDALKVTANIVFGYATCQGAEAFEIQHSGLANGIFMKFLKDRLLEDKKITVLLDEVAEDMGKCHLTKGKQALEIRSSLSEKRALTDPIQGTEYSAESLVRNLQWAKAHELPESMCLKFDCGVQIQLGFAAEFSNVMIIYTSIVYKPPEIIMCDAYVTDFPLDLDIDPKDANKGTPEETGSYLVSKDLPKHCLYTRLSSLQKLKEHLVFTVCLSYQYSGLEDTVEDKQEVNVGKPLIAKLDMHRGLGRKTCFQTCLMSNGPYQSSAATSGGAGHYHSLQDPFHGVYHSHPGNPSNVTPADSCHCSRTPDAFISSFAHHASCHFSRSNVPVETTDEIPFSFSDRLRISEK
Protocol: MALT1 protease activity was assessed in an in vitro assay using a tetrapeptide as substrate and full-length MALT1 protein (Strep-MALT1(1-824)-His) purified from baculovirus-infected insect cells. The tetrapeptide LRSR is coupled to AMC (7-amino-4-methylcoumarin) and provides a quenched, fluorescent substrate for the MALT1 protease (SM Biochemicals). Cleavage of AMC from the Arginine residue results in an increase in coumarin fluorescence measured at 460 nm (excitation 355 nm). […] Test compounds were spotted at 50 nL in 100% DMSO per well of a black 384-Proxiplate (Perkin Elmer). Test compound concentrations ranged from 30 μM to 0.5 nM using 11 dilution steps (1:3). Background signal was measured from control wells containing assay buffer without enzyme which functions as low control (LC). High control (HC) values were generated using the reaction with enzyme but no compound treatment. Compounds were pre-incubated with MALT1 enzyme for 50 minutes at RT. Substrate was added subsequently and fluorescence was measured in Labsystems fluoroskan at excitation 355 nm and emission 460 nm to determine time 0. The reaction was subsequently incubated for 4 h at RT and fluorescence was measured. […] The enzyme reaction was linear during the 4 h incubation period.
IC50 values were calculated using the following formula (Z prime should be >0.5):
From this an IC50 value (inhibitory concentration causing 50% inhibition) can be obtained. An estimate of the slope of the plot in terms of the Hill coefficient was also obtained.
With y=estimated response • UB=upper bound • LB=lower bound • h=hill

[4] = OCI-LY3 cells, 24 h incubation, supernatant, MSD V-Plex

SMILES | IC50 [1, 4] | IC50 [2, 4] | IC50 [3] | IC50 ([1]; OCI-Ly3, 24 h) | IC50 ([2]; OCI-Ly3, 24 h)
Cc1nc(-n2nccn2)c(C#N)cc1NC(=O)c1cnn(-c2ccc(C#N)c(N)n2)c1C(F)(F)F [Cpd 177, 1-(6-amino-5-cyanopyridin-2-yl)-N-(5-cyano-2-methyl-6-(2H-1,2,3-triazol-2-yl)pyridin-3-yl)-5-(trifluoromethyl)-1H-pyrazole-4-carboxamide] | 2750 nM | 7410 nM | 195 nM |  | 
Cc1ccc(N)nc1-n1ncc(C(=O)Nc2cnc(-n3nccn3)c(Cl)c2)c1C(F)(F)F [Cpd 185, 1-(6-amino-3-methylpyridin-2-yl)-N-(5-chloro-6-(2H-1,2,3-triazol-2-yl)pyridin-3-yl)-5-(trifluoromethyl)-1H-pyrazole-4-carboxamide] | 355 nM | 490 nM | 331 nM |  | 
N#Cc1cc(NC(=O)c2cnn(-c3cc(N)ncc3Cl)c2C(F)(F)F)cnc1-n1nccn1 [Cpd 148, 1-(2-amino-5-chloropyridin-4-yl)-N-(5-cyano-6-(2H-1,2,3-triazol-2-yl)pyridin-3-yl)-5-(trifluoromethyl)-1H-pyrazole-4-carboxamide] |  |  | 39 nM | 263 nM | 398 nM
Cc1cc(F)c(N)nc1-n1ncc(C(=O)Nc2cnc(-n3nccn3)c(C#N)c2)c1C(F)(F)F [Cpd 145, 1-(6-amino-5-fluoro-3-methylpyridin-2-yl)-N-(5-cyano-6-(2H-1,2,3-triazol-2-yl)pyridin-3-yl)-5-(trifluoromethyl)-1H-pyrazole-4-carboxamide] |  |  | 32 nM | 18 nM | 17 nM
Cc1cc(F)ccc1-n1ncc(C(=O)Nc2cc(Cl)c(-n3nccn3)nc2C)c1C(F)(F)F [Cpd 172, N-(5-chloro-2-methyl-6-(2H-1,2,3-triazol-2-yl)pyridin-3-yl)-1-(4-fluoro-2-methylphenyl)-5-(trifluoromethyl)-1H-pyrazole-4-carboxamide] | 178 nM | 200 nM | 151 nM |  | 
Cc1nc(-n2nccn2)c(Br)cc1NC(=O)c1cnn(-c2ccc(F)c(N)n2)c1C(F)(F)F [Cpd 181, 1-(6-amino-5-fluoropyridin-2-yl)-N-(5-bromo-2-methyl-6-(2H-1,2,3-triazol-2-yl)pyridin-3-yl)-5-(trifluoromethyl)-1H-pyrazole-4-carboxamide] | 240 nM | 363 nM | 234 nM |  | 
N#Cc1ccc(-n2ncc(C(=O)Nc3cnc(-n4nccn4)c(C#N)c3)c2C(F)(F)F)nc1N [Cpd 139, 1-(6-Amino-5-cyanopyridin-2-yl)-N-(5-cyano-6-(2H-1,2,3-triazol-2-yl)pyridin-3-yl)-5-(trifluoromethyl)-1H-pyrazole-4-carboxamide] | 76 nM | 74 nM | 26 nM |  | 
CNc1nc(-n2ncc(C(=O)Nc3cnc(-n4nccn4)c(C#N)c3)c2C(F)(F)F)ccc1F [Cpd 150, N-(5-cyano-6-(2H-1,2,3-triazol-2-yl)pyridin-3-yl)-1-(5-fluoro-6-(methylamino)pyridin-2-yl)-5-(trifluoromethyl)-1H-pyrazole-4-carboxamide] | 204 nM | 269 nM | 100 nM |  | 
Nc1cc(-n2ncc(C(=O)Nc3cnc(-n4nccn4)c(Cl)c3)c2C(F)(F)F)c(Cl)cn1 [Cpd 149, 1-(2-amino-5-chloropyridin-4-yl)-N-(5-chloro-6-(2H-1,2,3-triazol-2-yl)pyridin-3-yl)-5-(trifluoromethyl)-1H-pyrazole-4-carboxamide] | 155 nM | 166 nM | 85 nM |  | 
Cc1cnc(N)cc1-n1ncc(C(=O)Nc2cnc(-n3nccn3)c(C#N)c2)c1C(F)(F)F [Cpd 142, 1-(2-amino-5-methylpyridin-4-yl)-N-(5-cyano-6-(2H-1,2,3-triazol-2-yl)pyridin-3-yl)-5-(trifluoromethyl)-1H-pyrazole-4-carboxamide] | 355 nM | 676 nM | 22 nM |  | 
